pIC50: −log10 of the molar value.
What was measured:
[1] = Inhibition of clostridium neuraminidase using fluorescent substrate preincubated for 2 mins followed by substrate addition and measured after 30 mins by fluorescence based microplate reader analysis
[2] = target: Neuraminidase (Influenza A virus (A/Puerto Rico/8/1934(H1N1)), UniProt P03468); assay: Inhibition of Influenza A virus H1N1 neuraminidase using MU-NANA as substrate preincubated for 10 mins followed by substrate addition and measured after 15 mins by fluorescence based assay
Neuraminidase (Influenza A virus (A/Puerto Rico/8/1934(H1N1)), UniProt P03468), sequence (P03468 whole entry): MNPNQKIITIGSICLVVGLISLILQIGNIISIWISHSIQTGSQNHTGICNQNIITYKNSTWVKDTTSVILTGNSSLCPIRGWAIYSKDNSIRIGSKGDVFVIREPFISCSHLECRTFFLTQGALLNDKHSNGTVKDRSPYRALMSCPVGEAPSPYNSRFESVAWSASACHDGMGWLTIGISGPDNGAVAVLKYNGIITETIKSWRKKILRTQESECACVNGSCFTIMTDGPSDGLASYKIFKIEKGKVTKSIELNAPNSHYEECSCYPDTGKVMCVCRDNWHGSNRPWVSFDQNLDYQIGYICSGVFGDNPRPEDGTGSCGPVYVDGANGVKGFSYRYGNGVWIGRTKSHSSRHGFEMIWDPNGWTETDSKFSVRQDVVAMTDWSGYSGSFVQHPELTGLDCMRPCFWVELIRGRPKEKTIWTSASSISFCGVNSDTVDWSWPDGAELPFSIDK

Compound	pIC50 [1]	pIC50 [2]
O=C(N/N=C/c1ccc(F)c([N+](=O)[O-])c1)c1cc(O)cc(O)c1	5.26	–
O=C(N/N=C/c1cc([N+](=O)[O-])ccc1O)c1cc(O)cc(O)c1	5.72	–
O=C(N/N=C/c1ccc(O)c([N+](=O)[O-])c1)c1cc(O)cc(O)c1	6.68	–
CCC(CC)O[C@@H]1C=C(C(=O)O)C[C@H](N)[C@H]1NC(C)=O [OSELTAMIVIR CARBOXYLATE]	5.52	–
COc1cc(/C=N/NC(=O)c2cc(O)cc(O)c2)ccc1O	4.93	–
CC(=O)Nc1ccc(/C=N/NC(=O)c2cc(O)cc(O)c2)cc1	4.86	–
COc1cc(/C=N/NC(=O)c2cc(O)cc(O)c2)cc(OC)c1O	4.83	–
O=C(N/N=C/c1cc(Cl)ccc1[N+](=O)[O-])c1cc(O)c(O)c(O)c1	4.98	–
O=C(N/N=C/c1cc([N+](=O)[O-])ccc1F)c1cc(O)c(O)c(O)c1	4.44	–
COc1ccc(Br)cc1C(=O)N/N=C/c1ccc(Oc2ccc([N+](=O)[O-])cc2C#N)cc1	5.11	–
COc1cc(/C=N\NC(=O)c2ccc(Cn3cc(Br)c([N+](=O)[O-])n3)o2)cc(OC)c1O	4.89	–
CCOC(=O)c1ccc(N/N=C/c2cc(Br)cc([N+](=O)[O-])c2O)cc1	4.80	–
O=C(N/N=C/c1ccc(OS(=O)(=O)c2ccccc2)cc1)c1cccc([N+](=O)[O-])c1	5.07	–
O=C(N/N=C/c1ccc(O)c([N+](=O)[O-])c1)c1cc(O)c(O)c(O)c1	5.01	–
O=C(N/N=C/c1cc(Cl)ccc1[N+](=O)[O-])c1cc(O)cc(O)c1	5.43	–
O=C(N/N=C/c1cc([N+](=O)[O-])ccc1F)c1cc(O)cc(O)c1	5.40	–
CC1=NN(c2cccc(C(=O)O)c2)C(=O)/C1=C\c1ccc(-c2cc(Cl)ccc2C(=O)O)o1	–	4.43
O=C(N/N=C/c1ccc(F)c([N+](=O)[O-])c1)c1cc(O)c(O)c(O)c1	4.64	–
